These results are taken from US20070060646A1, “Acylhydrazone derivatives and the use thereof in the inhibition, regulation and/or modulation of kinase signal transduction” (priority 2003, published 2007).

In general, melting point refers to the temperature of the solid-liquid transition. Regarding `COc1cc(O)ccc1/C=N/NC(=O)Cc1cccc(C)c1` [compound 8], the melting point lay in the range of 207 to 208 °C.

As for `COc1cccc(CC(=O)N/N=C/c2cc([N+](=O)[O-])ccc2O)c1` [compound 29], the melting point was 198 to 199 °C.

As to `COc1cc(O)ccc1/C=N/NC(=O)Cc1ccc(F)cc1` [compound 12], the melting point was in the range of 184 to 185 °C.

In turn, `COc1cc(O)cc(C)c1/C=N/NC(=O)Cc1cccc(O)c1` [compound 40] registered a melting point of 194 to 195 °C.

Molecule `COc1cc(O)ccc1/C=N/NC(=O)Cc1ccc(Cl)c(Cl)c1` [compound 7] registered a melting point of 232 to 233 °C.

`COc1cccc(CC(=O)N/N=C(\C)c2ccc(O)cc2)c1` [compound 34]: the melting point was in the range of 162 to 164 °C.

In the case of `O=C(Cc1ccccc1)N/N=C/c1ccc(O)c(F)c1` [compound 5], the melting point was determined as 207 °C.

In turn, `COc1cccc(CC(=O)N/N=C/c2ccc(OC(C)=O)cc2OC)c1` [compound 21] registered a melting point of 147 to 148 °C.

Molecule `COc1cc(O)ccc1/C=N/NC(=O)Cc1cccc(F)c1` [compound 14] returned a melting point of 111 to 112 °C.

Take `COc1cccc(CC(=O)N/N=C/c2c(C)cc(O)cc2C)c1` [compound 16]: the melting point was in the range of 172 to 173 °C.

Molecule `COc1cc(O)ccc1/C=N/NC(=O)Cc1cccc(Br)c1` [compound 33] gave a melting point of 214 to 215 °C.

`COc1cc(O)ccc1/C=N/NC(=O)Cc1cccc(OS(C)(=O)=O)c1` [compound 35] yielded a melting point of 132 °C.

Regarding `COc1cc(O)ccc1/C=N/NC(=O)Cc1cc(O)cc(O)c1` [compound 19], the melting point was 246 °C (dec.).

In turn, `COc1cc(O)ccc1/C=N/NC(=O)Cc1cccc(C(F)(F)F)c1` [compound 22] showed a melting point of 203 to 204 °C.

`COc1cc(O)ccc1/C=N/NC(=O)Cc1ccccc1Cl` [compound 10] had a melting point of 134 to 135 °C.

With `COc1cc(O)ccc1/C=N/NC(=O)Cc1cc(F)cc(F)c1` [compound 36], the melting point is 224 to 225 °C.

As for `Cc1cc(O)ccc1/C=N/NC(=O)Cc1cccc(O)c1` [compound 37], the melting point was 203 to 204 °C.

Molecule `COc1cc(O)ccc1/C=N/NC(=O)Cc1ccccc1F` [compound 41] returned a melting point of 213 to 215 °C.

`COc1cccc(CC(=O)N/N=C/c2cc(Cl)ccc2O)c1` [compound 28]: the melting point was in the range of 178 to 179 °C.

Molecule `COc1cc(O)ccc1/C=N/NC(=O)C(O)c1ccccc1` (stereo not shown) [compound 30] gave a melting point of 217 to 218 °C.

The molecule `COc1cc(O)ccc1/C=N/NC(=O)Cc1ccccc1C` [compound 9] came in with a melting point of 119 to 120 °C.

Take `CCOc1cc(O)ccc1/C=N/NC(=O)Cc1cccc(O)c1` [compound 38]: the melting point was in the range of 190 to 192 °C.

For the molecule `O=C(Cc1cccc(F)c1)N/N=C/c1ccc(O)c(F)c1` [compound 20], the melting point was in the range of 193 to 194 °C.

Turning to `COc1cc(O)ccc1/C=N/NC(=O)Cc1cccc([N+](=O)[O-])c1` [compound 26], the melting point fell in the range of 240 to 241 °C.

As to `COc1cccc(OCC(=O)N/N=C/c2ccc(O)cc2OC)c1` [compound 25], the melting point fell in the range of 173 to 174 °C.

In the case of `COc1cccc(CC(=O)N/N=C/c2ccc(O)c(F)c2)c1` [compound 17], the melting point lay in the range of 190 to 191 °C.

The molecule `COc1cccc(CC(=O)N/N=C/c2ccc(O)cc2OC)c1` [compound 4] yielded a melting point of 166 to 167 °C.

For `COc1cc(O)ccc1/C=N/NC(=O)Cc1ccc(O)cc1` [compound 6], the melting point came out at 224 °C.

For the molecule `COc1cccc(CCC(=O)N/N=C/c2ccc(O)cc2OC)c1` [compound 23], the melting point is 159 to 160 °C.

For `COc1cccc(CC(=O)N/N=C(\C)c2ccc(O)cc2OC)c1` [compound 18], the melting point was 160 to 162 °C.

For the molecule `COc1cc(O)ccc1/C=N/NC(=O)Cc1cccc(Cl)c1` [compound 11], the melting point was 121 to 122 °C.

`COc1cc(O)ccc1/C=N/NC(=O)Cc1ccc(F)cc1Cl` [compound 13]: the melting point is 242 to 243 °C.

On to `COc1cccc(CC(=O)N/N=C/c2ccc(O)cc2)c1` [compound 15], for which the melting point lay within 162 to 163 °C.

On to `COc1cccc(CC(=O)N/N=C/c2ccc(O)cc2O)c1` [compound 24], for which the melting point was 205 to 206 °C.
